Legend:
HBV core protein (Cp149) [1] = target: T1, HBV core protein (Cp149) (Hepatitis B virus genotype D subtype ayw, UniProt P03146); experiment: HBV capsid assembly by size exclusion chromatography (SEC); type: biochemical; details: 50 μM compound, 15 μM Cp149, 16 hours at 21° C.
T1 construct: HBV core C-terminally truncated protein (HBV Cp149); made in house

HBV core protein (Cp149) [2] = target: T1, HBV core protein (Cp149); experiment: HBV capsid assembly by electron microscopy (EM); type: biochemical; details: 50 μM compound, 15 μM Cp149, negative stain
[3] = Cytotoxicity (MTT) in HepG2.2.15 cells; type: cell-based; details: human, 6 days treatment, read-out: HepG2.1.15 cytotoxicity (CC50)
In short: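 Adhered HepG2.2.15 cells were exposed to compounds for 6 days, then given […] MTT in serum-free medium for 2 h. Formazan dissolved in DMSO was read at 570 nm. CC50 (50% cell death) came from four-parameter fitting of viability versus concentration.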

HBV [4] = experiment: In vitro anti-HBV activity in HepG2.2.15 cell line (intracellular HBV DNA by qPCR at 1 μM); type: cell-based; details: Hepatitis B virus, 144 h; HepG2.2.15 cells, 1 μM compound, 6 days, intracellular HBV DNA as percentage compared to vehicle control (0.5% DMSO)
In short: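 HepG2.2.15 cells given compound at 1 μM (0.5% DMSO final) for 3 days, then fresh compound-containing medium for 3 more days. After 6 days intracellular HBV DNA measured by qPCR. Expressed as % of 0.5% DMSO vehicle control and binned into letter ranges.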

HBV capsid = target: T2, HBV capsid (Hepatitis B virus genotype D subtype ayw, UniProt P03146); experiment: Mechanistic study in stably HBV expressed HepG2.2.15 cells (capsid, encapsidated DNA/RNA, core protein blots); type: cell-based; details: HepG2.2.15, 6 days; for HBV capsid (formation of DNA- and RNA-devoid capsid): various concentrations; for Intracellular HBV core protein level: western blot
T2 construct: expressed in transfected cells; host or cells: HepG2.2.15
Procedure: The stably HBV expressed HepG2.2.15 cells were treated with test compounds, at various concentrations in culture medium, at 37° C. for three days. After that the medium was removed and fresh medium containing the compound was added to the cells for another 3 days. After 6 days of treatment, cellular lysates from the treated cells were assessed by non-denatured agarose gel electrophoresis. HBV capsid was detected by western blot with monoclonal anti-HBV core. Encapsidated HBV DNA and RNA were detected by southern blot and northern blot. Intracellular HBV core protein was assessed by western Blot with a monoclonal mouse anti-HBV core. β-actin protein assessed by western blot was used as an internal control.

HBV [5] = experiment: Effect on intrahepatic HBV DNA levels in HepG2.2.15 cells (EC50); type: cell-based; details: Hepatitis B virus, 144 h, 6 days, intrahepatic HBV DNA by qPCR, read-out: Anti-HBV DNA (EC50)
In short: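 Over 6 days at 37° C., HepG2.2.15 cells were treated with compound in 10% FCS medium, refreshed with compound after day 3. Intracellular HBV DNA was quantified by qPCR from cell lysates, and EC50 fitted by nonlinear regression relative to no-drug controls.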

HBV genotype D = experiment: HBV-infected primary human hepatocytes (PHH); type: cell-based, Hepatitis B virus; details: for HBeAg in PHH / HBsAg in PHH: treatment scheme 1; for HBV DNA in PHH: treatment scheme 1 (compound added simultaneously with infection media, 6 days); for cccDNA establishment in PHH: treatment scheme 1, southern blot
Procedure: Primary human hepatocytes (PHH) were infected with HBV genotype D produced from HepG2.2.15 cell line on day 1 after plating. Subsequently, the PHH were treated with various concentrations of compounds into 2 different treatment schemes. For treatment scheme 1, the compounds were added into PHH simultaneously with infection media, and incubated for additional 6 days. For treatment scheme 2, the compounds were added into PHH at day 3 after infection, and further incubated for 6 days. After treatment, the cell culture supernatants were collected for the determinations of HBV DNA by qPCR, pgRNA by RT-PCR, HBsAg and HBeAg by ELISA, and cell viability by CCK-8. The cells were harvested for detection of intracellular cccDNA by southern blot.

[6] = Pharmacokinetic study in dogs; type: in vivo, male Beagle dogs; details: for F (%) Dog: PO 0.3 to 2.0 mg/kg; for half-life / clearance / Vd: male, Beagle, dog, plasma; for half-life: read-out: t1/2 (h) Dog (converted); for clearance / Vd: IV 0.2 to 0.5 mg/kg; for clearance: read-out: CL (mL/min/kg) Dog; for Vd: read-out: Vd,ss (L/kg) Dog
Procedure: (§1) Test compounds were administered to male Sprague-Dawley rats and male Beagle dogs by oral (PO) and intravenous (TV) administration. For TV dosing, test compounds were dosed at 0.2 to 0.5 mg/kg using a formulation of 10% dimethyl sulfoxide in 20% hydroxypropyl beta-cyclodextrin solution via IV bolus. For PO dosing, test compounds were dosed at 0.3 to 2.0 mg/kg using a formulation of 40% polyethylene glycol 400 in water via oral gavage. Blood samples were collected at pre-dose and various time points up to 24 hours post-dose, and centrifuged to obtain plasma samples. The plasma concentrations of test compounds were quantified by LC-MS/MS methods. The relevant pharmacokinetic parameters (Table D) were calculated via non-compartmental analysis using WinNonlin (Phoenix™, version 8.3).

[7] = Pharmacokinetic study in rats; type: in vivo, male Sprague-Dawley rats; details: for CL (mL/min/kg) Rat / Vd: IV 0.2 to 0.5 mg/kg; for F (%) Rat: PO 0.3 to 2.0 mg/kg; for Vd / half-life: male, Sprague-Dawley, plasma, rat; for Vd: read-out: Vd,ss (L/kg) Rat; for half-life: read-out: t1/2 (h) Rat (converted)
Procedure: as §1

[8] = target: HBV core protein variant T33N (Hepatitis B virus genotype D subtype ayw, UniProt P03146, T33N); experiment: Anti-HBV activity in core protein variants: T33N; type: cell-based; details: relative to the wild type construct
[9] = target: HBV core protein variant F23Y (Hepatitis B virus genotype D subtype ayw, UniProt P03146, F23Y); experiment: Anti-HBV activity in core protein variants: F23Y; type: cell-based; details: relative to the wild type construct
[10] = target: HBV core protein variant I105T (Hepatitis B virus genotype D subtype ayw, UniProt P03146, I105T); experiment: Anti-HBV activity in core protein variants: I105T; type: cell-based; details: relative to the wild type construct
HBV genotypes A to D = type: cell-based; details: transfected HepG2 cells
[11] = target: HBV core protein variant T109M (Hepatitis B virus genotype D subtype ayw, UniProt P03146, T109M); experiment: Anti-HBV activity in core protein variants: T109M; type: cell-based; details: relative to the wild type construct
[12] = target: HBV core protein variant D29G (Hepatitis B virus genotype D subtype ayw, UniProt P03146, D29G); experiment: Anti-HBV activity in core protein variants: D29G; type: cell-based; details: relative to the wild type construct
[13] = target: HBV core protein variant T109I (Hepatitis B virus genotype D subtype ayw, UniProt P03146, T109I); experiment: Anti-HBV activity in core protein variants: T109I; type: cell-based; details: relative to the wild type construct
[14] = target: T3, HBV construct U95551 (wild-type) (Hepatitis B virus genotype D subtype ayw, UniProt P03146); type: cell-based; details: relative to the wild type construct
T3 construct: expressed in transfected cells; host or cells: HepG2

[15] = target: HBV core protein variant Y118F (Hepatitis B virus genotype D subtype ayw, UniProt P03146, Y118F); experiment: Anti-HBV activity in core protein variants: Y118F; type: cell-based; details: relative to the wild type construct

Row | Compound | Size of induced capsids based on SEC retention times (HBV core protein (Cp149) [1]) | Capsid morphology by EM (HBV core protein (Cp149) [2]) | CC50 at 6 days [3] [µM] | activity at 1 µM (HBV [4]) [%] | HBV capsid (formation of DNA- and RNA-devoid capsid) (HBV capsid) | Intracellular HBV core protein level (HBV capsid) | EC50 (HBV [5]) [µM] | HBeAg in PHH (HBV genotype D) | HBsAg in PHH (HBV genotype D) | HBV DNA in PHH (HBV genotype D) | cccDNA establishment in PHH (HBV genotype D) | F (%) Dog [6] [%] | half-life [6] [h] | clearance [6] [mL/min/kg] | Vd [6] [L/kg] | CL (mL/min/kg) Rat [7] [mL/min/kg] | F (%) Rat [7] [%] | Vd [7] [L/kg] | half-life [7] [h] | Fold change in EC50, T33N [8] | other results
1 | COC(=O)C1=C(C)NC(c2ncc(F)cc2F)=N[C@H]1c1ccc(F)cc1Cl [BAY 41-4109, reference compound] | larger in size, as compared to NVR 3-778 | the capsids appeared larger and misassembled with an irregular shape |  |  |  |  |  |  |  |  |  |  |  |  |  |  |  |  |  |  | Formation of capsids (SEC) (HBV core protein (Cp149) [1]): increased the formation of capsids
2 | C[C@H]1[C@@H](C(=O)Nc2cc(F)c(F)c(F)c2)CCN1C(=O)c1[nH]c2ccccc2c1Cl [Example 42, (2S,3S)-1-(3-chloro-1H-indole-2-carbonyl)-2-methyl-N-(3,4,5-trifluorophenyl)pyrrolidine-3-carboxamide] | capsid retention times between BAY 41-4109 and NVR 3-778 | resulted in larger but normal shape spheres | > 25 | < 45 | dose-dependently accelerated formation of DNA- and RNA-devoid capsid | had no effect on intracellular HBV core protein level | 0.05 to 0.3 | inhibited | inhibited | inhibited | inhibited |  |  |  |  |  |  |  |  |  | 
3 | Cc1ncnc(C)c1-c1ccc(C(=O)N2CC[C@H](C(=O)Nc3ccc(F)c(Cl)c3)[C@@H]2C)[nH]1 [Example 104, (2S,3S)—N-(3-chloro-4-fluorophenyl)-1-(5-(4,6-dimethylpyrimidin-5-yl)-1H-pyrrole-2-carbonyl)-2-methylpyrrolidine-3-carboxamide] | induced capsids similar in size to NVR 3-778 | showed similar results as for NVR 3-778 | 10 to 25 | < 45 | dose-dependently accelerated formation of DNA- and RNA-devoid capsid | had no effect on intracellular HBV core protein level | < 0.05 |  |  |  |  | 53 | 14.2 | 1.5 | 1.67 | 12.3 | 66 | 1.93 | 1.9 |  | 
4 | Cc1cc(NC(=O)[C@H]2CCN(C(=O)c3ccc(-c4c(C)ncnc4C)[nH]3)[C@H]2C)ccc1F [Example 149, (2S,3S)-1-(5-(4,6-dimethylpyrimidin-5-yl)-1H-pyrrole-2-carbonyl)-N-(4-fluoro-3-methylphenyl)-2-methylpyrrolidine-3-carboxamide] | induced capsids similar in size to NVR 3-778 |  | 10 to 25 | < 45 |  |  | < 0.05 | inhibited | inhibited | inhibited | inhibited | 63 | 4.5 | 5.1 | 1.3 | 20.0 | 44 | 2.92 | 6.5 | D (D>15) | Fold change in EC50, F23Y [9]: C (C=5-15); Fold change in EC50, I105T [10]: B (B=1-5); Anti-HBV activity across HBV genotypes (HBV genotypes A to D): effective across all HBV genotypes tested (A to D); Fold change in EC50, T109M [11]: A (A<1); Fold change in EC50, D29G [12]: B (B=1-5); Fold change in EC50, T109I [13]: A (A<1); Fold change in EC50, U95551 (wild-type) [14]: B (B=1-5); Fold change in EC50, Y118F [15]: A (A<1)
5 | CCOC(=O)C1=C(CN2CCOCC2)NC(c2nccs2)=NC1c1ccc(F)cc1Br (stereo not shown) [GLS4, reference compound] |  |  |  |  | induced formation of DNA- and RNA-devoid capsid | reduced intracellular HBV core protein level in the concentration-dependent manner |  |  |  |  |  |  |  |  |  |  |  |  |  | D (D>15) | Fold change in EC50, F23Y [9]: C (C=5-15); Fold change in EC50, I105T [10]: B (B=1-5); Fold change in EC50, T109M [11]: B (B=1-5); Fold change in EC50, D29G [12]: B (B=1-5); Fold change in EC50, T109I [13]: C (C=5-15); Fold change in EC50, U95551 (wild-type) [14]: B (B=1-5); Fold change in EC50, Y118F [15]: B (B=1-5)

— US20230391752A1, “PYRROLIDINE-3-CARBOXAMIDE DERIVATIVES AND RELATED USES” (Chulalongkorn University, priority 2020, published 2023)
